# Data from article PMC9504029, “Identification and Characterization of Novel Small-Molecule SMOX Inhibitors” (Medical Sciences, 2022).
# Legend:
# [1] = test system: SH-SY5Y neuroblastoma cells; experiment: Cell viability following excitotoxic stress (glutamate), MTS assay; assay type: cell-based, human; conditions: 80 mM glutamate
# Protocol: SH-SY5Y neuroblastoma cells purchased from ATCC (Manassas, VA, USA) were cultured in Dulbecco’s modified Eagle medium (DMEM) without phenol red and supplemented with 10% heat inactivated human AB serum, 4 mM L-glutamine, and 1% penicillin/streptomycin. As the oxidation of spermine by various polyamine oxidases has been documented in cell culture containing ruminant serum, such as in fetal bovine serum (FBS) and horse serum, human AB serum was used to prevent assay interference. The cells were maintained in 5% CO2 humidified atmosphere at 37 °C. Cell media was replaced every 2 days and the cells were discarded after a maximum of 15 passages.
# The SH-SY5Y neuroblastoma cells were plated at a density of 1 × 10^6 cells/mL in 96-well plates (Costar #9018; clear flat bottom) and allowed to adhere overnight. Media was aspirated and the cells were then treated with low-serum culture media (containing 5% human AB serum), 80 mM of glutamate, and varying concentrations of compound. The glutamate and test compounds were added simultaneously with no pre-incubation period. Cell viability was measured at 16 h and 24 h post-treatment by a standard MTS assay (0.33 mg/mL incubated at 37 °C for 3 h). Absorbance was read at 490 nm following 3-h incubation with MTS reagent. […]
# recombinant human MAO-A = biological target: T1, recombinant human MAO-A (Homo sapiens, UniProt P21397); experiment: MAO-Glo assay, MAO-A; assay type: biochemical; conditions: read-out: % Inhibition at 20 μM ± SD, MAO-A
# T1 construct: purchased Sigma-Aldrich M7316-1VL
# T1 sequence (P21397 1-527): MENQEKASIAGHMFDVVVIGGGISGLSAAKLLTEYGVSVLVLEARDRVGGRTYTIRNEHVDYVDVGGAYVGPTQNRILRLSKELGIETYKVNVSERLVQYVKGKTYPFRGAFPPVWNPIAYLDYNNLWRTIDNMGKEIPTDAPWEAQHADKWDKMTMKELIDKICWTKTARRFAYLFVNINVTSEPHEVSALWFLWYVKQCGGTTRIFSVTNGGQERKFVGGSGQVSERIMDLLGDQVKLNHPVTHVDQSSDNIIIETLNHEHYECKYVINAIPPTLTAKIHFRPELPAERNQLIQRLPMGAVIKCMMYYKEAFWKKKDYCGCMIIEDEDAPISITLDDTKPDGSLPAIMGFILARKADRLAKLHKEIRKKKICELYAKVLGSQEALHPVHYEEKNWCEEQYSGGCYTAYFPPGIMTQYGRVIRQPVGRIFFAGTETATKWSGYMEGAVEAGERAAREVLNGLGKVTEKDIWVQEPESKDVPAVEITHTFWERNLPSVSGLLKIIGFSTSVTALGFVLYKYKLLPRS
# Protocol: To determine selectivity, the compounds were tested for activity against the related FAD-dependent amine oxidase enzymes LSD1, MAO-A, and MAO-B. LSD1 activity was assessed using a commercially available assay kit (#700120, Cayman Chemical, Ann Arbor, MI, USA), in which the enzyme activity was determined by the horseradish peroxidase-catalyzed oxidation of 10-acetyl-3,7-dihydroxyphenoxazine to the highly fluorescent resorufin in response to H2O2 production. Monoamine oxidase activity was determined using recombinant human MAO-A and MAO-B (M7316-1VL & M7441-1VL, Sigma-Aldrich, St. Louis, MO, USA) and a commercially available assay kit (#V1401, MAO-Glo, Promega, Madison, WI, USA), which utilizes the MAO-catalyzed oxidation of a luciferin derivative coupled with esterase activity to produce luminescence. Fluorescent and luminescent readout was obtained using a SpectraMax M5 plate reader (Molecular Devices) equipped with SOFTmax PRO 7.0.3 software. […] Values were reported as mean % inhibition ± SD of triplicate assay wells normalized to background activity and compared to the vehicle control.
# SH-SY5Y cells = experiment: ROS production following acute excitotoxic stress, CM-H2DCFDA; assay type: cell-based, human; conditions: 8 mM glutamate, 1 h, p < 0.0001
# Protocol: To measure intracellular ROS production following acute excitotoxic stress, a CM-H2DCFDA (Invitrogen) probe was used. The SH-SY5Y cells were incubated in the presence of dichlorodihydrofluorescein diacetate (CM-H2DCFDA, Invitrogen), 20 µM in HBSS, at 37 °C for 30 min. The cells were then pelleted and washed with HBSS buffer (without phenol red, magnesium, or calcium). Phosphate buffer was not used to prevent the formation of polyamine–phosphate complexes. The cells were then resuspended in 96-well plates (Greiner #655086; black walled, cleat flat bottom) at a concentration of 1 × 10^6 cells/mL in HBSS containing 0–100 µM of inhibitor and 8 mM of glutamate. Dichlorodihydrofluorescein (DCF) fluorescence was monitored over 1 h (ex 488 nm, em 530 nm). The increase in fluorescence was reported as the % activity of control wells in the absence of the inhibitor. Fluorescent readout was obtained using a SpectraMax M5 plate reader (Molecular Devices) equipped with SOFTmax PRO 7.0.3 software. All test compounds were assessed for fluorescent activity at 530 nm prior to experimentation. The statistical analysis was conducted in GraphPad Prism 9.3 software (Graph-Pad, San Diego, California) using a one-way ANOVA with multiple comparisons (α = 0.05).
structure (smiles),measurement,setting,value
Cc1cc([C@H](O)CNCCCNC(=N)N)cc(C)c1O [Compound 6],Cell viability vs vehicle control and MDL 72527,"[1]; 24 h, 1 mM compound, p = 0.0001 vs vehicle, p = 0.0003 vs MDL 72527",significantly increased cell viability
same,viability at 100 µM,"[1]; Homo sapiens, SH-SY5Y, 16 h, 100 µM compound, vehicle 26.5%, not statistically significant",48.3%
same,inhibition at 20 µM,recombinant human MAO-A,-6 ± 2.1%
same,Production of ROS vs vehicle control,SH-SY5Y cells; 10 µM compound,significantly decreased the production of ROS
same,Production of ROS vs vehicle control,"SH-SY5Y cells; 50 µM compound, p = 0.0004 vs 10 µM",significantly decreased the production of ROS
